Experimental data published in US20230330234A1, “HYPERBRANCHED POLYESTER POLYOL DERIVATIVE AS DRUG SOLUBILIZER” (FREIE UNIVERSITÄT BERLIN, priority 2020, published 2023).
Converted amounts (≈) assume the structure as drawn. Where two headings read alike, the source gives them in different places.

What was measured:
physchem = conditions: aqueous with cosolvent or surfactant or cyclodextrin, thermodynamic from solid
[1] = Carrying potential of h(PG-co-PCL)60S0.95 by elemental analysis; assay type: physicochemical; conditions: calculated by elemental analysis
Text: The carrying potential (CP) of the polymer (solubilizing agent) is obtained as the ratio of the loaded and solubilized drug to the amount of solubilizing agent (Eq. 1).
For drugs presenting an absorption band at wavelength lower than 400 nm, the UV-VIS approach is not suitable, due to drug signals overlapping with signals of the solubilizing agent. Therefore, elemental analysis is chosen as alternative approach. The drugs chosen for the solubilization and entrapment contain nitrogen atoms, which are not present in the polymer structure. Via the quantification of the nitrogen content in the sample, it is possible to determine the amount of drug in it. For the loading quantification, the same equation is used as in the previous case.
The following tables (Table 5, Table 6 and Table 7) show the results of the performed analyses. In this context, h(PG-co-PCL)60S0.95 was used as hyperbranched polyester polyol derivative. Its non-sulfated backbone has a molecular weight of 60 kDa. The polyester polyol derivative has a sulfation degree of 95%.

[2] = Size and Z-potential investigation by DLS in PB; assay type: physicochemical; conditions: h(PG-co-PCL)60S0.95 with solubilized drug
Text: The following tables (Table 5, Table 6 and Table 7) show the results of the performed analyses. In this context, h(PG-co-PCL)60S0.95 was used as hyperbranched polyester polyol derivative. Its non-sulfated backbone has a molecular weight of 60 kDa.

Structure (SMILES)	solubility at 18 h (physchem)	solubility (Solubility in water; Solubility in water)	also measured
CCN1[C@@H](C(=O)NC23CCC(C(=O)O)(CC2)CC3)[C@H](c2cccc(Cl)c2F)[C@]2(C(=O)Nc3cc(Cl)ccc32)C12CCCCC2 [APG-115]	> 300 µg/mL	2 µg/mL (≈ 3.11 µM)	
CN(C)C/C=C/C(=O)Nc1cc2c(Nc3ccc(F)c(Cl)c3)ncnc2cc1O[C@H]1CCOC1 [Afatinib]	> 300 µg/mL	10 µg/mL (≈ 20.6 µM)	
C=CC(=O)Nc1ccc2[nH]c(=O)n(C3CCN(Cc4ccc(-c5nc6cc[nH]c(=O)c6cc5-c5ccccc5)cc4)CC3)c2c1 [Borussertib]			Carrying potential [1]: 12% wt %
COc1cc(Nc2c(C#N)cnc3cc(OCCCN4CCN(C)CC4)c(OC)cc23)c(Cl)cc1Cl [Bosutinib]	> 300 µg/mL	10 µg/mL (≈ 18.9 µM)	
COc1cc2nccc(Oc3ccc(NC(=O)C4(C(=O)Nc5ccc(F)cc5)CC4)cc3)c2cc1OC [Cabozantinib]	> 300 µg/mL	2 µg/mL (≈ 3.99 µM)	
CC(C)(C)c1nc(-c2cccc(NS(=O)(=O)c3c(F)cccc3F)c2F)c(-c2ccnc(N)n2)s1 [Dabrafenib]	> 300 µg/mL	30 µg/mL (≈ 57.7 µM)	Carrying potential [1]: 1% wt %; Size (volume) ([2]; DLS in PB, in nm (unit assumed)): 12 ± 1; Z-potential ([2]; in PB, in mV (unit assumed)): −29.6
Cc1nc(Nc2ncc(C(=O)Nc3c(C)cccc3Cl)s2)cc(N2CCN(CCO)CC2)n1 [Dasatinib]	> 300 µg/mL		
C[C@@H]1C[C@H]2[C@@H]3CCC4=CC(=O)C=C[C@]4(C)[C@@]3(F)[C@@H](O)C[C@]2(C)[C@@]1(O)C(=O)CO [Dexamethasone]	< 100 µg/mL		
COC(=O)N[C@@H](C)CNc1nccc(-c2cn(C(C)C)nc2-c2cc(Cl)cc(NS(C)(=O)=O)c2F)n1 [Encorafenib]	> 300 µg/mL	10 µg/mL (≈ 18.5 µM)	
C#Cc1cccc(Nc2ncnc3cc(OCCOC)c(OCCOC)cc23)c1 [Erlotinib]	> 300 µg/mL	10 µg/mL (≈ 25.4 µM)	
COc1ccc(-c2nc(N3CCOCC3)c3sc(CN(C)c4ncc(C(=O)NO)cn4)cc3n2)cn1 [Fimepinostat]	> 300 µg/mL	2 µg/mL (≈ 3.93 µM)	
Cn1ncc(Cl)c1-c1cc(C(=O)N[C@H](CN)Cc2cccc(F)c2)sc1Cl [GSK2110183]	> 300 µg/mL	7 µg/mL (≈ 16.4 µM)	
CN(C)C1CCN(C(=O)c2ccc(NC(=O)Nc3ccc(-c4nc(N5CCOCC5)nc(N5CCOCC5)n4)cc3)cc2)CC1 [Gedatolisib]	> 300 µg/mL	40 µg/mL (≈ 65 µM)	
CN1CC[C@@H](NC(=O)Nc2ccc(C#N)cc2)C[C@@H]1c1nc2ccccc2[nH]1 [Glasdegib]	> 300 µg/mL	50 µg/mL (≈ 134 µM)	
C=CC(=O)N1CCC[C@@H](n2nc(-c3ccc(Oc4ccccc4)cc3)c3c(N)ncnc32)C1 [Ibrutinib]	> 300 µg/mL	20 µg/mL (≈ 45.4 µM)	
CC(C)Cc1ccc(C(C)C(=O)O)cc1 (centres unmarked) [Ibuprofen]	< 100 µg/mL		
CO[C@@H](C)Cn1c(=O)n(C)c2cnc3ccc(-c4cncc(C(C)(C)O)c4)cc3c21 [LY3023414]	> 300 µg/mL	80 µg/mL (≈ 197 µM)	
C[C@H]1Oc2cc(cnc2N)-c2c(nn(C)c2C#N)CN(C)C(=O)c2ccc(F)cc21 [Lorlatinib]	> 300 µg/mL	100 µg/mL (≈ 246 µM)	
Nc1ncccc1-c1nc2ccc(-c3ccccc3)nc2n1-c1ccc(C2(N)CCC2)cc1 [Miransertib]	> 300 µg/mL		solubility (Solubility in water): 60 µg/mL (≈ 139 µM)
Nc1ccccc1NC(=O)c1ccc(CNc2nccc(-c3cccnc3)n2)cc1 [Mocetinostat]	> 300 µg/mL	8 µg/mL (≈ 20.2 µM)	
COc1ccc([C@@H](O)c2cc(-c3ncnc4cc(N5CCOCC5)ccc34)c(F)cc2Cl)nn1 [Nedisertib]	> 300 µg/mL	80 µg/mL (≈ 166 µM)	
CCOc1cc2ncc(C#N)c(Nc3ccc(OCc4ccccn4)c(Cl)c3)c2cc1NC(=O)/C=C/CN(C)C [Neratinib]	> 300 µg/mL	6 µg/mL (≈ 10.8 µM)	
C=CC(=O)Nc1cc(Nc2nccc(-c3cn(C)c4ccccc34)n2)c(OC)cc1N(C)CCN(C)C [Osimertinib]	> 300 µg/mL	20 µg/mL (≈ 40 µM)	
Cc1ccc(Nc2nccc(N(C)c3ccc4c(C)n(C)nc4c3)n2)cc1S(N)(=O)=O [Pazopanib]	> 300 µg/mL		Solubility in water (Solubility in water): 40 µg/mL (≈ 91.4 µM)
CNCc1ccc(-c2[nH]c3cc(F)cc4c3c2CCNC4=O)cc1 [Rucaparib]	> 300 µg/mL	10 µg/mL (≈ 30.9 µM)	
CC(C)(C)C[C@@H]1N[C@@H](C(=O)N[C@H]2CC[C@H](O)CC2)[C@H](c2cccc(Cl)c2F)[C@]12C(=O)Nc1cc(Cl)ccc12 [SAR405838]	> 300 µg/mL	2 µg/mL (≈ 3.56 µM)	
Cn1cnc2c(F)c(Nc3ccc(Br)cc3Cl)c(C(=O)NOCCO)cc21 [Selumetinib]	> 300 µg/mL	40 µg/mL (≈ 87.4 µM)	
COc1ncc(-c2nc3c(n2C(C)C)[C@H](c2ccc(Cl)cc2)N(c2cc(Cl)cn(C)c2=O)C3=O)c(OC)n1 [Siremadlin]	> 300 µg/mL	1 µg/mL (≈ 1.8 µM)	
Cn1ncc(Cl)c1-c1cc(C(=O)N[C@H](CN)Cc2ccc(F)c(F)c2)oc1Cl [Uprosertib]	> 300 µg/mL	30 µg/mL (≈ 69.9 µM)	
CCCS(=O)(=O)Nc1ccc(F)c(C(=O)c2c[nH]c3ncc(-c4ccc(Cl)cc4)cc23)c1F [Vemurafenib]	> 300 µg/mL	0.3 µg/mL (≈ 0.612 µM)	

Now from value to compound, other results behind:

solubility at 18 h (physchem)	solubility (Solubility in water; Solubility in water)	Structure (SMILES)	also measured
> 300 µg/mL	5 µg/mL (≈ 11.3 µM)	Cc1nc(NC(=O)N2CCC[C@H]2C(N)=O)sc1-c1ccnc(C(C)(C)C(F)(F)F)c1 [Alpelisib]	
> 300 µg/mL		CNC(=O)c1ccccc1Sc1ccc2c(/C=C/c3ccccn3)n[nH]c2c1 [Axitinib]	Solubility in water (Solubility in water): 0.5 µg/mL (≈ 1.29 µM)
> 300 µg/mL	50 µg/mL (≈ 85.1 µM)	CCN(CCCOc1ccc2c(Nc3cc(CC(=O)Nc4cccc(F)c4)n[nH]3)ncnc2c1)CCOP(=O)(O)O [Barasertib]	
> 300 µg/mL	30 µg/mL (≈ 94.2 µM)	O=C(/C=C/c1cccc(S(=O)(=O)Nc2ccccc2)c1)NO [Belinostat]	
> 300 µg/mL	50 µg/mL (≈ 113 µM)	Cn1cnc2c(F)c(Nc3ccc(Br)cc3F)c(C(=O)NOCCO)cc21 [Binimetinib]	
> 300 µg/mL	50 µg/mL (≈ 130 µM)	CC(C)C[C@H](NC(=O)[C@H](Cc1ccccc1)NC(=O)c1cnccn1)B(O)O [Bortezomib]	
> 300 µg/mL	40 µg/mL (≈ 75.3 µM)	O=C(c1ccc(F)c(F)c1Nc1ccc(I)cc1F)N1CC(O)([C@@H]2CCCCN2)C1 [Cobimetinib]	
< 100 µg/mL		COc1cc(/C=C/C(=O)CC(=O)/C=C/c2ccc(O)c(OC)c2)ccc1O [Curcumin]	Solubility in water (Solubility in water): 6 µg/mL (≈ 16.3 µM)
> 300 µg/mL	9 µg/mL (≈ 19.2 µM)	COc1cc2ncnc(Nc3ccc(F)c(Cl)c3)c2cc1NC(=O)/C=C/CN1CCCCC1 [Dacomitinib]	
> 300 µg/mL	5 µg/mL (≈ 13.3 µM)	Nc1ccccc1NC(=O)c1ccc(CNC(=O)OCc2cccnc2)cc1 [Entinostat]	
> 300 µg/mL	9 µg/mL (≈ 16.1 µM)	CN1CCN(c2ccc(C(=O)Nc3n[nH]c4ccc(Cc5cc(F)cc(F)c5)cc34)c(NC3CCOCC3)c2)CC1 [Entrectinib]	
> 300 µg/mL	1 µg/mL (≈ 1.85 µM)	CCCc1cc(C)[nH]c(=O)c1CNC(=O)c1cc(-c2ccnc(N3CCN(C)CC3)c2)cc2c1cnn2C(C)C [GSK343]	
> 300 µg/mL	1 µg/mL (≈ 1.62 µM)	COc1cc(C(=O)O)ccc1NC(=O)[C@@H]1N[C@@H](CC(C)(C)C)[C@](C#N)(c2ccc(Cl)cc2F)[C@H]1c1cccc(Cl)c1F [Idasanutlin]	
> 300 µg/mL	50 µg/mL (≈ 109 µM)	CC(C)NC[C@@H](C(=O)N1CCN(c2ncnc3c2[C@H](C)C[C@H]3O)CC1)c1ccc(Cl)cc1 [Ipatasertib]	
> 300 µg/mL	2 µg/mL (≈ 3.78 µM)	Cc1cn(-c2cc(NC(=O)c3ccc(C)c(Nc4nccc(-c5cccnc5)n4)c3)cc(C(F)(F)F)c2)cn1 [Nilotinib]	
> 300 µg/mL	10 µg/mL (≈ 31.2 µM)	NC(=O)c1cccc2cn(-c3ccc([C@@H]4CCCNC4)cc3)nc12 [Niraparib]	
> 300 µg/mL	120 µg/mL (≈ 276 µM)	O=C(c1cc(Cc2n[nH]c(=O)c3ccccc23)ccc1F)N1CCN(C(=O)C2CC2)CC1 [Olaparib]	
> 300 µg/mL	2 µg/mL (≈ 3.76 µM)	Cc1ccc(C(=O)Nc2ccc(CN3CCN(C)CC3)c(C(F)(F)F)c2)cc1C#Cc1cnc2cccnn12 [Ponatinib]	
> 300 µg/mL	4 µg/mL (≈ 9.07 µM)	Cn1nccc1Nc1nccc(-c2ccn([C@H](CO)c3ccc(Cl)c(F)c3)c(=O)c2)n1 [Ravoxertinib]	
> 300 µg/mL		CNC(=O)c1cc(Oc2ccc(NC(=O)Nc3ccc(Cl)c(C(F)(F)F)c3)c(F)c2)ccn1 [Regorafenib]	Solubility in water (Solubility in water): 1 µg/mL (≈ 2.07 µM)
> 300 µg/mL		N#CC[C@H](C1CCCC1)n1cc(-c2ncnc3[nH]ccc23)cn1 [Ruxolitinib]	
> 300 µg/mL	100 µg/mL (≈ 263 µM)	Cn1ncnc1[C@H]1c2n[nH]c(=O)c3cc(F)cc(c23)N[C@@H]1c1ccc(F)cc1 [Talazoparib]	
> 300 µg/mL	4 µg/mL (≈ 9.23 µM)	CC(C)Nc1cc(-c2c[nH]c(C(=O)N[C@H](CO)c3cccc(Cl)c3)c2)c(Cl)cn1 [Ulixertinib]	
